The nature of data set [1]: The drug is tested on Z-016 corresponding to mouse gut metagenome with ENA study accession number: PRJEB37062 and ENA sample accession number: ERS12561815 for biotransformation under anaerobic condition. The drug concentrations were measured over 9 timepoints collected between 0 and 24 hours of incubation by liquid-chromatography-coupled mass spectrometry (LC–MS). Particulars: 2 µM.

The conditions of data set [2]: human gut metagenome, 24 h, 2 µM.
For data set [3] the following is noted: human gut metagenome, 24 h, 2 µM. The source holds these as a separate data set.
The nature of data set [4]: The drug is tested on Z-023 corresponding to metagenome with ENA study accession number: PRJEB37062 and ENA sample accession number: ERS12561822 for biotransformation under anaerobic condition. The drug concentrations were measured over 9 timepoints collected between 0 and 24 hours of incubation by liquid-chromatography-coupled mass spectrometry (LC–MS). Particulars: 2 µM.

Data set [5] is described as follows: The drug is tested on WLS-170 corresponding to human gut metagenome with ENA study accession number: PRJEB37062 and ENA sample accession number: ERS12561762 for biotransformation under anaerobic condition. The drug concentrations were measured over 9 timepoints collected between 0 and 24 hours of incubation by liquid-chromatography-coupled mass spectrometry (LC–MS). The following applies: 2 µM.

The conditions of data set [6]: human gut metagenome, 24 h, 2 µM. The source holds these as a separate data set.
The conditions of data set [7]: human gut metagenome, 24 h, 2 µM. The source holds these as a separate data set.
Data set [8] in a line: The drug is tested on WLS-082 corresponding to human gut metagenome with ENA study accession number: PRJEB37062 and ENA sample accession number: ERS12561751 for biotransformation under anaerobic condition. The drug concentrations were measured over 9 timepoints collected between 0 and 24 hours of incubation by liquid-chromatography-coupled mass spectrometry (LC–MS). The following applies: 2 µM.

Data set [9] in a line: The drug is tested on WLS-077 corresponding to human gut metagenome with ENA study accession number: PRJEB37062 and ENA sample accession number: ERS12561750 for biotransformation under anaerobic condition. The drug concentrations were measured over 9 timepoints collected between 0 and 24 hours of incubation by liquid-chromatography-coupled mass spectrometry (LC–MS). Particulars: 2 µM.

Data set [10] is described as follows: The drug is tested on WLS-006 corresponding to human gut metagenome with ENA study accession number: PRJEB37062 and ENA sample accession number: ERS12561741 for biotransformation under anaerobic condition. The drug concentrations were measured over 9 timepoints collected between 0 and 24 hours of incubation by liquid-chromatography-coupled mass spectrometry (LC–MS). The following applies: 2 µM.

Data set [11] in a line: The drug is tested on WLS-086 corresponding to human gut metagenome with ENA study accession number: PRJEB37062 and ENA sample accession number: ERS12561752 for biotransformation under anaerobic condition. The drug concentrations were measured over 9 timepoints collected between 0 and 24 hours of incubation by liquid-chromatography-coupled mass spectrometry (LC–MS). Particulars: 2 µM.

For data set [12] the following is noted: human gut metagenome, 24 h, 2 µM. The source holds these as a separate data set.
Data set [13] in a line: The drug is tested on WLS-370 corresponding to human gut metagenome with ENA study accession number: PRJEB37062 and ENA sample accession number: ERS12561793 for biotransformation under anaerobic condition. The drug concentrations were measured over 9 timepoints collected between 0 and 24 hours of incubation by liquid-chromatography-coupled mass spectrometry (LC–MS). The following applies: 2 µM.

Data set [14] can be described thus: The drug is tested on Z-009 corresponding to pig gut metagenome with ENA study accession number: PRJEB37062 and ENA sample accession number: ERS12561809 for biotransformation under anaerobic condition. The drug concentrations were measured over 9 timepoints collected between 0 and 24 hours of incubation by liquid-chromatography-coupled mass spectrometry (LC–MS). Particulars: 2 µM.

A short description of data set [15]: The drug is tested on WLS-220 corresponding to human gut metagenome with ENA study accession number: PRJEB37062 and ENA sample accession number: ERS12561769 for biotransformation under anaerobic condition. The drug concentrations were measured over 9 timepoints collected between 0 and 24 hours of incubation by liquid-chromatography-coupled mass spectrometry (LC–MS). Particulars: 2 µM.

Data set [16] in a line: The drug is tested on Z-021 corresponding to metagenome with ENA study accession number: PRJEB37062 and ENA sample accession number: ERS12561820 for biotransformation under anaerobic condition. The drug concentrations were measured over 9 timepoints collected between 0 and 24 hours of incubation by liquid-chromatography-coupled mass spectrometry (LC–MS). The following applies: 2 µM.

For data set [17] the following is noted: human gut metagenome, 24 h, 2 µM. This is another data set of the same source.
For data set [18] the following is noted: human gut metagenome, 24 h, 2 µM. The source holds these as a separate data set.
Data set [19] in a line: The drug is tested on Z-008 corresponding to metagenome with ENA study accession number: PRJEB37062 and ENA sample accession number: ERS12561808 for biotransformation under anaerobic condition. The drug concentrations were measured over 9 timepoints collected between 0 and 24 hours of incubation by liquid-chromatography-coupled mass spectrometry (LC–MS). The following applies: 2 µM.

The conditions of data set [20]: human gut metagenome, 24 h, 2 µM. The source holds these as a separate data set.
Note: call rule not given here.

With `Br.CN(C)CCCC1(c2ccc(F)cc2)OCc2cc(C#N)ccc21` (stereo not given) [CITALOPRAM HYDROBROMIDE], the “Bacterial Biotransformation” value is listed as “Compound NOT metabolized” in data set [1]; “Compound metabolized” in [2]; “Compound metabolized” in data set [3]; “Compound NOT metabolized” in [4]; “Compound metabolized” in data set [5]; “Compound NOT metabolized” in [6]. The “Bacterial Biotransformation” value in data set [7] is “Compound metabolized”; in [8], “Compound NOT metabolized”; in data set [9], “Compound NOT metabolized”; in [10] it was “Compound metabolized”; in [11], “Compound metabolized”; in data set [12] it was “Compound metabolized”. Also, the “Bacterial Biotransformation” value is “Compound metabolized” in data set [13]; “Compound metabolized” in data set [14]; “Compound NOT metabolized” in data set [15]; “Compound NOT metabolized” in data set [16]; “Compound metabolized” in data set [17]; “Compound metabolized” in [18]. Further, the “Bacterial Biotransformation” value in data set [19] and in [20] was “Compound NOT metabolized” in each case.

For the compound `CN(C)CCC=C1c2ccccc2C=Cc2ccccc21` [CYCLOBENZAPRINE], the “Bacterial Biotransformation” value was “Compound NOT metabolized” in [1]; “Compound metabolized” in data set [2]; “Compound metabolized” in data set [3]; “Compound metabolized” in data set [4]; “Compound metabolized” in [5]; “Compound NOT metabolized” in data set [6]. Also, the “Bacterial Biotransformation” value in [7] was “Compound metabolized”; in [8], “Compound metabolized”; in [9], “Compound NOT metabolized”; in data set [10], “Compound metabolized”; in [11], “Compound metabolized”; in data set [12], “Compound metabolized”. Further, the “Bacterial Biotransformation” value in data set [13], in [14], in data set [15], in data set [16], in data set [17] and in [18] was “Compound metabolized” each time. The “Bacterial Biotransformation” value in data set [19] is recorded as “Compound NOT metabolized”; in data set [20] it was “Compound metabolized”.

Consider `O=C(Nc1ccccc1)OCC(CN1CCCCC1)OC(=O)Nc1ccccc1` (stereo not given) [DIPERODON], for which the “Bacterial Biotransformation” value in [1] is given as “Compound NOT metabolized”; in [2], “Compound metabolized”; in data set [3], “Compound NOT metabolized”; in data set [4] it was “Compound metabolized”; in data set [5], “Compound metabolized”; in data set [6], “Compound NOT metabolized”. Moreover, the “Bacterial Biotransformation” value in data set [7] is on record as “Compound metabolized”; in data set [8] it was “Compound metabolized”; in [9], “Compound NOT metabolized”; in data set [10] it was “Compound NOT metabolized”; in data set [11], “Compound metabolized”; in data set [12], “Compound metabolized”. The “Bacterial Biotransformation” value in data set [13] was “Compound NOT metabolized”; in data set [14] it was “Compound metabolized”; in data set [15], “Compound metabolized”; in data set [16] it was “Compound NOT metabolized”; in [17] it was “Compound metabolized”; in [18] it was “Compound NOT metabolized”. Moreover, the “Bacterial Biotransformation” value in [19] was “Compound NOT metabolized”; in data set [20], “Compound metabolized”.

Consider `CC(C)N(CCC(C(N)=O)(c1ccccc1)c1ccccn1)C(C)C.O=P(O)(O)O` (stereo not given) [DISOPYRAMIDE PHOSPHATE], for which the “Bacterial Biotransformation” value in data set [1] was “Compound NOT metabolized”; in [2], “Compound NOT metabolized”; in data set [3] it was “Compound metabolized”; in [4] it was “Compound NOT metabolized”; in data set [5] it was “Compound NOT metabolized”; in [6], “Compound NOT metabolized”. In addition, the “Bacterial Biotransformation” value in [7] is reported as “Compound NOT metabolized”; in [8] it was “Compound NOT metabolized”; in [9] it was “Compound NOT metabolized”; in data set [10] it was “Compound metabolized”; in data set [11], “Compound metabolized”; in data set [12], “Compound metabolized”. For the same compound, the “Bacterial Biotransformation” value in data set [13] is recorded as “Compound NOT metabolized”; in data set [14] it was “Compound NOT metabolized”; in [15] it was “Compound NOT metabolized”; in data set [16] it was “Compound NOT metabolized”; in [17], “Compound metabolized”; in [18], “Compound NOT metabolized”. In addition, the “Bacterial Biotransformation” value in data set [19] and in [20] was “Compound NOT metabolized” each time.

In the case of `C[C@@H](CO)NC(=O)[C@@H]1C=C2c3cccc4[nH]cc(c34)C[C@H]2N(C)C1.O=C(O)/C=C\C(=O)O` [ERGONOVINE MALEATE], the “Bacterial Biotransformation” value in data set [1] is recorded as “Compound NOT metabolized”; in data set [2], “Compound NOT metabolized”; in data set [3], “Compound NOT metabolized”; in [4], “Compound NOT metabolized”; in data set [5], “Compound metabolized”; in data set [6], “Compound NOT metabolized”. For the same compound, the “Bacterial Biotransformation” value in data set [7], in data set [8], in data set [9], in [10], in data set [11] and in data set [12] was “Compound metabolized” each time. Besides, the “Bacterial Biotransformation” value in data set [13] was “Compound metabolized”; in data set [14], “Compound NOT metabolized”; in data set [15] it was “Compound NOT metabolized”; in [16] it was “Compound NOT metabolized”; in [17], “Compound NOT metabolized”; in data set [18], “Compound metabolized”. In addition, the “Bacterial Biotransformation” value is “Compound NOT metabolized” in data set [19] and “Compound metabolized” in [20].
